Test results as given in US10206930B2, “Methods for treating T-cell acute lymphoblastic leukemia” (New York University, priority 2015, dated 2019).

Key:
[1] = tested on: human T-ALL cells (CUTLL1); test: Genome-wide expression analysis (RNA-seq) of treated T-ALL cells; type: cell-based
Description: Whole RNA was extracted from 1-5×10^6 T-ALL cells or primary cells using the RNeasy kit (QIAGEN) according to the manufacturer's protocol. Poly(A)^+ RNA was enriched using magnetic oligo(dT)-containing beads (Invitrogen). cDNA was prepared and strand-specific libraries were constructed using the dUTP method as described previously (Zhong et al., “High-Throughput Illumina Strand-Specific RNA Sequencing Library Preparation,” Cold Spring Harb. Protoc. 2011:940-949 (2011), which is hereby incorporated by reference in its entirety). Libraries were sequenced on the IIlumina HiSeq 2000 using the 50-base-pair single-read method.
Differential gene expression analysis was performed for each matched knockdown versus control pair, separately in each biological or technical replicate in each of two cell lines (CUTLL1 and CEM). Three types of comparisons were tested: (1) JMJD3 knockdown versus Renilla; (2) JMJD3 knockdown versus UTX knockdown; and (3) UTX knockdown versus Renilla. DEGseq44 was used to analyze (a) matched knockdown—Renilla replicates in separate DEGseq runs and (b) all replicates on a combined DEGexp run. For the mouse (Utx knockout) samples, spleen and bone marrow from a wild-type male (referred to as animal #9), as well as spleen from a wild-type female (animal #10), were compared with spleen and bone marrow from a knockout male (#23) and spleen from another knockout male (#27) (see also the GEO accession G5E56696). For illustration, scatter plots (FIG. 4D and FIGS. 5G-I) were created using values obtained from DEGseq analysis of merged biological and/or technical replicates. Gene RNA-seq FPKM values were computed using GenomicTools (Tsirigos et al., “GenomicTools: A Computational Platform for Developing High-Throughput Analytics in Genomics,” Bioinformatics 28:282-283 (2012), which is hereby incorporated by reference in its entirety). The P-value cutoff for differential expression was set at 1×10^−5, with the minimum absolute log2 fold change set at 0.5.

[2] = tested on: myeloid leukaemia cells, stromal cells and haematopoietic progenitor cells; test: Growth of non-T-ALL control cells under GSKJ4; type: cell-based; conditions: FIGS. 12L-12M
[3] = tested on: H3K27me3 levels at repressed genes; test: H3K27me3 ChIP at repressed genes upon GSKJ4 treatment; type: cell-based, human; conditions: 24 to 72 hours post-GSKJ4 treatment
Description: ChIP experiments were performed as described previously (Ntziachristos et al., “Genetic Inactivation of the Polycomb Repressive Complex 2 in T Cell Acute Lymphoblastic Leukemia,” Nature Med. 18:298-303 (2012), which is hereby incorporated by reference in its entirety). In brief, for the analysis of histone marks, the cells were fixed with 1% formaldehyde for 10 minutes at 25° C. and lysed them by the addition of nucleus incubation buffer (15 mM Tris, pH 7.5, 60 mM KCl, 150 mM NaCl, 15 mM MgCl2, 1 mM CaCl2, 250 mM sucrose and 0.3% NP-40) and incubation at 4° C. for 10 minutes. […]
First, enriched ChIP-seq windows were identified separately for each of the two samples under comparison using a window-based approach and the binomial probability distribution to compare signal reads with control reads in each window. Subsequently, for each genomic window enriched in at least one of the two samples, the total number of reads was determined, and the window read counts were normalized using quantile normalization across biological replicates and samples before comparison. […] This comparison was performed independently at different H3K27me3 read density levels to control for artificially high fold changes due to low read counts in the denominator. […]

[4] = tested on: human T-ALL cell lines and primary human T-ALL cells; test: Cell growth, annexin V apoptosis and BrdU cell cycle analysis of T-ALL cells; type: cell-based; set-up: dose or concentration left out as unconfirmed
Description: Mice, Cell Culture and Primary Cell Samples. The Jmjd3 (Satoh et al., “The Jmjd3-Irf4 Axis Regulates M2 Macrophage Polarization and Host Responses Against Helminth Infection,” Nature Immunol. 11:936-944 (2010), which is hereby incorporated in its entirety) and Utx (Welstead et al., “X-linked H3K27me3 Demethylase Utx is Required for Embryonic Development in a Sex-Specific Manner,” Proc. Natl. Acad. Sci. USA 109:13004-13009 (2012), which is hereby incorporated by reference in its entirety) knockout mouse models, as well as the corresponding genotyping strategy, have been described previously. All animals used in this study were treated according to IACU protocols. The human T-ALL cell lines CUTLL1 (Palomero et al., “CUTLL1, a Novel Human T-Cell Lymphoma Cell Line With t(7; 9) Rearrangement, Aberrant NOTCH1 Activation and High Sensitivity to c-Secretase Inhibitors,” Leukemia 20:1279-1287 (2006), which is hereby incorporated by reference in its entirety), P12-Ichikawa, Loucy, DND41, CEM and Jurkat and the myeloid leukaemia cell lines (THP-1 and HL-60), as well as the mouse T-ALL line (720) (Sharma et al., “Notch1 Contributes to Mouse T-cell Leukemia by Directly Inducing the Expression of c-myc,” Mol. Cell. Biol. 26:8022-8031 (2006), which is hereby incorporated by reference in its entirety), were cultured in RPMI 1640 medium supplemented with 20% FBS and penicillin and streptomycin. […] Primary human samples were collected by collaborating institutions with informed consent and were analyzed under the supervision of the Columbia University Medical Center and St. Jude Children's Research Hospital Institutional Review Boards. […]
T-ALL cells were infected twice with shRNA-expressing retroviruses and selected using puromycin. […] For the cell cycle analysis, 5-bromodeoxyuridine (BrdU; 10 mM) was added for a 1 hour pulse, and incorporation into DNA was determined by using the BrdU Flow Kit (BD Biosciences). Apoptosis was studied by quantification of annexin V staining using the BD Biosciences kit and flow cytometry according to standard protocols provided by the manufacturer. […]

T-ALL cells = test: IC50 of GSKJ4 on T-ALL cell proliferation, normalized to control inhibitor GSKJ5; type: cell-based; conditions: Homo sapiens, 120 h, 5 days treatment, FIG. 11A CUTLL1, read-out: IC50 determined for T-ALL cells
[5] = tested on: T-ALL cell lines (CUTLL1, CEM and P12); test: Subcutaneous or intravenous xenograft of shRNA-treated T-ALL cell lines; type: in vivo, mouse; conditions: immunocompromised NRG mice; compared with shRenilla-treated cell lines
Description: Studies were conducted as previously published (Ntziachristos et al., “Genetic Inactivation of the Polycomb Repressive Complex 2 in T Cell Acute Lymphoblastic Leukemia,” Nature Med. 18:298-303 (2012), which is hereby incorporated by reference in its entirety). In both cases, CUTLL1, P12 or CEM T-ALL cells expressing luciferase (FUW-LUC) and the corresponding shRNA (shJMJD3, shUTX or shRenilla) were used. For the intravenous studies, 1×10^6 cells were injected retroorbitally into sublethally irradiated female NRG (NOD Rag1^−/−Il2rg^−/−) mice. For subcutaneous studies, 1×10^6 cells were mixed with an equal volume of BD Matrigel basement membrane and injected into the flanks of female NOD-SCID mice. In both cases, cell growth was monitored every 2 days using IVIS (Caliper, PerkinElmer).

human T-ALL cells = test: shRNA knockdown: loss of representation studies and apoptosis assays; type: cell-based; conditions: shRNA treatment
Description: T-ALL cells were infected twice with shRNA-expressing retroviruses and selected using puromycin. Expression studies took place at different time points during the selection period, and the results are presented from day 4 during selection. […] For the cell cycle analysis, 5-bromodeoxyuridine (BrdU; 10 mM) was added for a 1 hour pulse, and incorporation into DNA was determined by using the BrdU Flow Kit (BD Biosciences). Apoptosis was studied by quantification of annexin V staining using the BD Biosciences kit and flow cytometry according to standard protocols provided by the manufacturer. Doxycycline was used at […] final concentration.
Protein-G-coated magnetic beads were purchased from Invitrogen. […] Reporter fluorescence was used (as determined by flow cytometry) for the quantification of shRNA.

[6] = GSKJ4 vs control inhibitor GSKJ5

Molecule: CCOC(=O)CCNc1cc(N2CCc3ccccc3CC2)nc(-c2ccccn2)n1 [GSKJ4, ethyl 3-((6-(4,5-dihydro-1H-benzo[d]azepin-3(2H)-yl)-2-(pyridin-2-yl)pyrimidin-4-yl)amino)propanoate]
- number of downregulated genes ([1]; CUTLL1, 72 hours of treatment with GSKJ4): 486 genes
- growth of myeloid leukaemia cells, stromal cells and haematopoietic progenitor cells [2]: unaffected
- H3K27me3 levels at repressed genes [3]: increase in the H3K27me3 levels
- apoptosis (annexin V) [4, 6]: increased apoptosis
- cell cycle effect [4, 6]: cell cycle arrest
- growth of human T-ALL cell lines and primary human T-ALL cells ([4]; GSKJ4 vs control inhibitor GSKJ5, 24-72 hours): significantly affected the growth
- IC50 (T-ALL cells): 2000 nM

B1: shJMJD3B: shRNA against JMJD3, SEQ ID NO: 4 (nucleic acid)
chain: ACACCAGCAGTAGCAACAGCAATAGTGAAGCCACAGATGTATTGCTGTTGCTACTGCTGGTGG
- in vivo growth of transplanted T-ALL cells [5]: significant growth disadvantage

B2: shJMJD3A: shRNA against JMJD3, SEQ ID NO: 3 (nucleic acid)
chain: CAGGGAAGTTTCGAGAAGTCCTATAGTGAAGCCACAGATGTATAGGACTCTCGAACTTCCCTT
- in vivo growth of transplanted T-ALL cells [5]: significant growth disadvantage

B3: shUTX: shRNA against UTX, SEQ ID NO: 5 (nucleic acid)
chain: ACACAAGGTAGTCTACAGAATATAGTGAAGCCACAGATGTATATTCTGTAGACTACCTTGTGG
- number of significantly downregulated protein-coding genes ([1]; shRNA knockdown): 46 genes
- number of significantly upregulated protein-coding genes ([1]; shRNA knockdown): 189 genes
- viability of leukaemic cells (human T-ALL cells): not
